We go through two compounds from paper PMC10673369, “Preliminary SAR of Novel Pleuromutilin–Polyamine Conjugates” (Microorganisms, 2023).

Some results are limits rather than exact numbers.

The subject of one series is S. aureus ATCC 25923. Description: MIC, broth dilution, S. aureus. It counts as cell-based. The conditions noted are these: Staphylococcus aureus, ATCC25923, mean (n = 3). The method, then: (§1) The susceptibility of bacterial strains S. aureus (ATCC 25923), E. coli (ATCC 25922), and P. aeruginosa (ATCC 27853 or PAO1) to antibiotics and compounds was determined using reported protocols. Additional antimicrobial evaluation against MRSA (ATCC 43300), Klebsiella pneumoniae (ATCC 700603), A. baumannii (ATCC 19606), Candida albicans (ATCC 90028), and Cryptococcus neoformans (ATCC 208821) was undertaken at the Community for Open Antimicrobial Drug Discovery at The University of Queensland (Australia) according to their standard protocols as reported previously. […]
(§2) 2.3. Antimicrobial Assays
(§3) The susceptibility of bacterial strains S. aureus (ATCC 25923), E. coli (ATCC 25922), and P. aeruginosa (ATCC 27853 or PAO1) to antibiotics and compounds was determined in microplates using the standard broth dilution method in accordance with the recommendations of the Comité de l’AntibioGramme de la Société Française de Microbiologie (CA-SFM). Briefly, the minimal inhibitory concentrations (MICs) were determined with an inoculum of 10^5 CFU in 200 µL of Mueller–Hinton broth (MHB) containing two-fold serial dilutions of each drug. The MIC was defined as the lowest […]
(§4) determine all MICs, the measurements were independently repeated in triplicate. Additional antimicrobial evaluation against MRSA (ATCC 43300), Klebsiella pneumoniae (ATCC 700603), A. baumannii (ATCC 19606), Candida albicans (ATCC 90028), and Cryptococcus neoformans (ATCC 208821) was undertaken at the Community for Open Antimicrobial Drug Discovery at The University of Queensland (Australia) according to their standard protocols as reported previously. […]
(§5) For C. neoformans, resazurin was added at 0.006% final concentration to each well and incubated for a further 3 h before MICs were determined by measuring […]
(§6) Colistin and vancomycin were used as positive bacterial inhibitor standards for Gram-negative and Gram-positive bacteria, respectively. Fluconazole was used as a positive fungal inhibitor standard for C. albicans and C. neoformans. The antibiotics were provided in […], with 3 above and 3 below its MIC value, and plated into the first 8 wells of column 23 of the 384-well NBS plates. The quality control (QC) of the assays was determined by the antimicrobial controls and the Z'-factor (using positive and negative controls). Each plate was deemed to fulfil the quality criteria (pass QC) if the Z'- […]
(§7) inhibition at their highest concentration, and no growth inhibition at their lowest concentration.
(§8) 2.4. Determination of the MICs of Antibiotics in the Presence of Synergizing Compounds

The next series relates to MRSA ATCC 43300. The series can be described thus: MIC, CO-ADD broth microdilution, MRSA. It counts as cell-based, methicillin-resistant S. aureus. To be noted: Staphylococcus aureus; MRSA ATCC 43300; mean (n = 2); read-out: MIC MRSA. As for the experimental part: as §1, §2
(§9) The susceptibility of bacterial strains S. aureus (ATCC 25923), E. coli (ATCC 25922), and P. […]
(§10) baumannii (ATCC 19606), Candida albicans (ATCC 90028), and Cryptococcus neoformans (ATCC 208821) was undertaken at the Community for Open Antimicrobial Drug Discovery at The University of Queensland (Australia) according to their standard protocols as reported previously. For antimicrobial assays, the tested strains were cultured in either Luria broth (LB) (In Vitro Technologies, USB75852), nutrient broth (NB) (Becton Dickson, 234000), or MHB at 37 °C overnight. A sample of culture was then diluted 40-fold in fresh MHB and incubated at 37 °C for 1.5−2 h. The compounds were serially diluted 2-fold across the wells of 96-well plates (Corning 3641, non-binding surface), with compound concentrations ranging from 0.015 to 64 µg/ mL, and plated in duplicate. The resultant mid-log phase cultures were diluted to the final concentration of 1 × 10^6 CFU/mL; then, 50 µL was added to each well of the compound-containing plates, giving a final compound concentration range of 0.008 to 32 µg/mL and a cell density of 5 × 10^5 CFU/mL. All plates were then covered and incubated at 37 °C for 18 h. Resazurin was added at 0.001% final concentration to each well and incubated for 2 h before MICs […]
as §5, §6, §7, §8

In a further series the test system is E. coli ATCC 25922. Description: MIC, broth dilution, E. coli. Type of series: cell-based, Escherichia coli. The conditions noted are these: Escherichia coli, ATCC25922, mean (n = 3). As for the experimental part:
as §1, §2, §3, §4

The test system of a further series is P. aeruginosa PAO1. The series can be described thus: MIC, broth dilution, P. aeruginosa PAO1. Type of series: cell-based. The conditions noted are these: Pseudomonas aeruginosa, mean (n = 3). As for the experimental part:
as §1, §2, §3, §4, §5, §6, §7, §8

The subject of series [1] is K. pneumoniae ATCC 700603. Description: MIC, CO-ADD broth microdilution, K. pneumoniae. Type of series: cell-based, Klebsiella pneumoniae. The conditions noted are these: Klebsiella pneumoniae, ATCC700603, mean (n = 2). The method, then:
as §1, §2, §9, §10, §5, §6, §7, §8

For another series, the system named is A. baumannii ATCC 19606. The series can be described thus: MIC, CO-ADD broth microdilution, A. baumannii. Type of series: cell-based. The conditions noted are these: Acinetobacter baumannii, ATCC19606, mean (n = 2). As for the experimental part: as §1, §2, §9, §10, §5, §6, §7, §8
The nature of series [2]: Cytotoxicity assay, HEK293. It counts as cell-based. To be noted: human; HEK293 cells; mean (n = 2); read-out: Cytotoxicity (IC50), concentration of compound at 50% cytotoxicity. As for the experimental part: Cytotoxicity assays were conducted using reported protocols (see Supplementary File). […]
HEK293 cells were counted manually in a Neubauer hemocytometer and plated at a density of 5,000 cells/well into each well of the 384-well plates containing the 25x (2 µL) concentrated compounds [26,27]. The medium used was Dulbecco's modified Eagle’s medium (DMEM), supplemented with 10% fetal bovine serum (FBS). Cells were incubated together with the compounds for 20 h at 37 °C, 5% CO2.
To measure cytotoxicity, 5 µL (equals 100 µM final) of resazurin was added to each well after incubation and incubated for further 3 h at 37 °C with 5% CO2. After the final incubation, fluorescence intensity […]
reader. CC50 values (concentration at 50% cytotoxicity) were calculated by normalizing the fluorescence readout, with 74 µg/mL tamoxifen as negative control (0%) and normal cell growth as positive control (100%). The concentration-dependent percentage cytotoxicity was fitted to a dose–response function (using Pipeline Pilot) and CC50 values were determined. […]

The test system of another series is P. aeruginosa ATCC 27853. Description: Antibiotic enhancement of doxycycline. To be noted: for Dox/P.a.: fold change, ratio between intrinsic MIC of test compound and combination MIC: doxycycline at 4.5 µM; for Dox/P.a.: concentration required to restore doxycycline activity: doxycycline at 4.5 µM (2 µg/mL). Type of series: cell-based. The method, then: Antibiotic restoring enhancer concentrations were determined using reported protocols (see Supplementary File).
Briefly, restoring enhancer concentrations were determined with an inoculum of 5x10^5 CFU in 200
µL of MHB containing two-fold serial dilutions of each derivative in the presence of doxycycline at 4.5
The lowest concentration of the polyamine
These measurements were independently repeated in triplicate. […]

With `C=C[C@]1(C)C[C@@H](OC(=O)CNCCCNCCCCCCCCCCNCCCNCC(=O)O[C@@H]2C[C@@](C)(C=C)[C@@H](O)[C@H](C)[C@]34CCC(=O)[C@H]3[C@@]2(C)[C@H](C)CC4)[C@]2(C)[C@H](C)CC[C@]3(CCC(=O)[C@H]32)[C@@H](C)[C@@H]1O.O=C(O)C(F)(F)F.O=C(O)C(F)(F)F.O=C(O)C(F)(F)F.O=C(O)C(F)(F)F` [Compound 9e, N^1,N^1′-(Decane-1,10-diyl)bis(N^3-(2-(((3aR,4R,5R,7S,8S,9R,9aS,12R)-8-hydroxy-4,7,9,12-tetramethyl-3-oxo-7-vinyldecahydro-4,9a-propanocyclopenta [8]annulen-5-yl)oxy)-2-oxoethyl)propane-1,3-diaminium) 2,2,2-trifluoroacetate], the MIC with S. aureus ATCC 25923 is 4.27 µM; in the series with MRSA ATCC 43300, no more than 0.17 µM; against E. coli ATCC 25922 it was 4.27 µM; in the series on P. aeruginosa PAO1, greater than 88 µM; in series [1] it was greater than 21.9 µM; with A. baumannii ATCC 19606 it was greater than 21.9 µM. The IC50 at 20 h in series [2] is greater than 21.9 µM. In addition, in the series on P. aeruginosa ATCC 27853, the “Dox/P.a.: fold change, ratio between intrinsic MIC of test compound and combination MIC” value was 2. Also, the “Dox/P.a.: concentration required to restore doxycycline activity” value in the series on P. aeruginosa ATCC 27853 was 34.2 µM.

With `C=C[C@]1(C)C[C@@H](OC(=O)CNCCCNCCCCCCCCNCCCNCC(=O)O[C@@H]2C[C@@](C)(C=C)[C@@H](O)[C@H](C)[C@]34CCC(=O)[C@H]3[C@@]2(C)[C@H](C)CC4)[C@]2(C)[C@H](C)CC[C@]3(CCC(=O)[C@H]32)[C@@H](C)[C@@H]1O.O=C(O)C(F)(F)F.O=C(O)C(F)(F)F.O=C(O)C(F)(F)F.O=C(O)C(F)(F)F` [Compound 9d, N^1,N^1′-(Octane-1,8-diyl)bis(N^3-(2-(((3aR,4R,5R,7S,8S,9R,9aS,12R)-8-hydroxy-4,7,9,12-tetramethyl-3-oxo-7-vinyldecahydro-4,9a-propanocyclopenta [8]annulen-5-yl)oxy)-2-oxoethyl)propane-1,3-diaminium) 2,2,2-trifluoroacetate], the MIC was 34.8 µM with S. aureus ATCC 25923; 5.57 µM with MRSA ATCC 43300; 70 µM with E. coli ATCC 25922; greater than 139 µM with P. aeruginosa PAO1; greater than 22.3 µM in series [1]; greater than 22.3 µM in the series with A. baumannii ATCC 19606. Further, the IC50 at 20 h in series [2] is greater than 22.3 µM. In addition, the “Dox/P.a.: fold change, ratio between intrinsic MIC of test compound and combination MIC” value with P. aeruginosa ATCC 27853 is reported as 1. Besides, in the series with P. aeruginosa ATCC 27853, the “Dox/P.a.: concentration required to restore doxycycline activity” value stood at 139 µM.
